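Dose response: 5 concentrations. Exposure: 48 h. Format: 96-well plates. Endpoint: linear interpolation; highest concentration if not reached. GI50 marks 50% less growth.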 The source made the active and inactive calls. No stated cut-off is given here; in the data, active = GI50 up to about 1.1 µM and inactive = higher. Peptide text beside a SMILES is read from it. * marks the point of attachment. Trt = c1ccc(C(c2ccccc2)(c2ccccc2)*)cc1; Cbz = O=C(OCc1ccccc1)*
Assays:
Assay in all cases: DTP human tumour cell line panel, 48 h
COLO 205 = system: COLO 205
RXF 393 = system: RXF 393
Malme-3M = system: Malme-3M
SR = system: SR
EKVX = system: EKVX
HCT-15 = system: HCT-15
HT-29 = system: HT-29
PC-3 = system: PC-3
UACC-62 = system: UACC-62
K562 = system: K562
SK-OV-3 = system: SK-OV-3
MCF7 = system: MCF7
CAKI-1 = system: CAKI-1
SK-MEL-5 = system: SK-MEL-5
MDA-MB-435 = system: MDA-MB-435
HOP-62 = system: HOP-62
SNB-75 = system: SNB-75
BT-549 = system: BT-549
UO-31 = system: UO-31
KM12 = system: KM12

SMILES	GI50 (COLO 205)	GI50 (RXF 393)	GI50 (Malme-3M)	GI50 (SR)	GI50 (EKVX)	GI50 (HCT-15)	GI50 (HT-29)	GI50 (PC-3)	GI50 (UACC-62)	GI50 (K562)	GI50 (SK-OV-3)	GI50 (MCF7)	GI50 (CAKI-1)	GI50 (SK-MEL-5)	GI50 (MDA-MB-435)	GI50 (HOP-62)	GI50 (SNB-75)	GI50 (BT-549)	GI50 (UO-31)	GI50 (KM12)
CC(=O)c1cnc2oc3ccc(O)cc3c2c1-c1ccccc1	30.3 µM (inactive)	25.3 µM (inactive)	15.5 µM (inactive)	33.3 µM (inactive)	23.9 µM (inactive)	58.1 µM	95.5 µM (inactive)	21.4 µM (inactive)	20.5 µM (inactive)	41.6 µM (inactive)	14 µM (inactive)	48.2 µM (inactive)	29.4 µM (inactive)	22.2 µM (inactive)	64.9 µM (inactive)					
OC12COc3ccccc3C1Oc1ccccc1C2 (stereo unspecified)	> 100 µM (inactive)		> 100 µM (inactive)		> 100 µM (inactive)	> 100 µM	> 100 µM (inactive)	> 100 µM (inactive)	> 100 µM (inactive)	> 100 µM (inactive)	> 100 µM (inactive)	> 100 µM (inactive)	> 100 µM (inactive)	> 100 µM (inactive)	> 100 µM (inactive)	> 100 µM (inactive)	> 100 µM (inactive)	> 100 µM (inactive)	> 100 µM (inactive)	> 100 µM (inactive)
CSC1=NS(=O)(=O)c2cc(C(=O)NN(C)C(=O)c3cc4c(cc3Cl)SC(SC)=NS4(=O)=O)c(Cl)cc2S1	> 10 µM (inactive)	> 10 µM (inactive)	> 10 µM (inactive)	> 10 µM (inactive)	> 10 µM (inactive)	> 10 µM	> 10 µM (inactive)	> 10 µM (inactive)		> 10 µM (inactive)	> 10 µM (inactive)	9.75 µM (inactive)	> 10 µM (inactive)	> 10 µM (inactive)		> 10 µM (inactive)	> 10 µM (inactive)	> 10 µM (inactive)	> 10 µM (inactive)	> 10 µM (inactive)
CCOC(=O)N(C)C(=C(F)F)C(F)(F)F	21 µM (inactive)		14.6 µM (inactive)	3.95 µM (inactive)	27.6 µM (inactive)	16.3 µM	27 µM (inactive)	30.9 µM (inactive)	> 10 µM (inactive)	22.1 µM (inactive)	36 µM (inactive)	36.6 µM (inactive)		15.7 µM (inactive)	22.8 µM (inactive)	25.2 µM (inactive)	29.5 µM (inactive)		32.7 µM (inactive)	35 µM (inactive)
Cc1ccc(S(=O)(=O)C2=Cc3ccccc3C2(O)c2ccccc2)cc1 (stereo unspecified)	24.5 µM (inactive)			22.2 µM (inactive)	24.9 µM (inactive)	32.7 µM	19.7 µM (inactive)	27.4 µM (inactive)		25.1 µM (inactive)	29.3 µM (inactive)			16.6 µM (inactive)	30.8 µM (inactive)	> 10 µM (inactive)	31 µM (inactive)	24 µM (inactive)		21.4 µM (inactive)
CC1(C)CC2=C(Sc3ccccc3N2)C(=O)C1C(=O)C(=O)Nc1cccc([N+](=O)[O-])c1 (stereo unspecified)	> 100 µM (inactive)		> 100 µM (inactive)		> 100 µM (inactive)	> 100 µM	> 100 µM (inactive)	75.9 µM (inactive)	98.2 µM (inactive)	66.8 µM (inactive)	> 100 µM (inactive)	> 100 µM (inactive)	> 100 µM (inactive)	> 100 µM (inactive)	> 100 µM (inactive)		> 100 µM (inactive)	> 100 µM (inactive)	> 100 µM (inactive)	44 µM (inactive)
Cc1cc(C)c2c(c1)N[S@@](=O)S2	18.2 µM (inactive)	10.6 µM (inactive)	25.2 µM (inactive)	36.2 µM (inactive)	51.5 µM (inactive)	16.5 µM	20.2 µM (inactive)		18.6 µM (inactive)	26.4 µM (inactive)	31.4 µM (inactive)		25.2 µM (inactive)	29.9 µM (inactive)		57.9 µM (inactive)	32.5 µM (inactive)		23 µM (inactive)	24 µM (inactive)
CSc1ccc(N2C(=O)C3c4[nH]c5ccccc5c4C4CCC(C(C)(C)C)CC4C3C2=O)cc1 (stereo unspecified)	10 µM (inactive)	20.3 µM (inactive)	12.3 µM (inactive)	10.2 µM (inactive)	20.7 µM (inactive)	66.2 µM	21.8 µM (inactive)		13.8 µM (inactive)	15.9 µM (inactive)	16.6 µM (inactive)		19.9 µM (inactive)	25.8 µM (inactive)		12.2 µM (inactive)	18.5 µM (inactive)		16.5 µM (inactive)	28.4 µM (inactive)
O=C1CCCc2cc3c(cc21)CC1(Cc2ccccc2C1)C3	1.93 µM (inactive)	8.83 µM (inactive)	9.79 µM (inactive)		9.14 µM (inactive)	3.59 µM	2.8 µM (inactive)	> 100 µM (inactive)	8.91 µM (inactive)	1.86 µM (inactive)	5.11 µM (inactive)	3.9 µM (inactive)		4.89 µM (inactive)	1.91 µM (inactive)	6.04 µM (inactive)	0.106 µM (active)		1.46 µM (inactive)	2.5 µM (inactive)
CCOC(=O)c1c(N)n(-c2ccccc2)c(=S)n(-c2ccccc2)c1=O	> 100 µM (inactive)	> 100 µM (inactive)	> 100 µM (inactive)	> 100 µM (inactive)		> 100 µM	> 100 µM (inactive)		> 100 µM (inactive)	> 100 µM (inactive)		> 100 µM (inactive)		> 100 µM (inactive)	> 100 µM (inactive)		> 100 µM (inactive)	> 100 µM (inactive)	> 100 µM (inactive)	> 100 µM (inactive)
Cc1ccc(S(=O)(=O)N2CCSCCN(S(=O)(=O)c3ccc(C)cc3)CCN(S(=O)(=O)c3ccc(C)cc3)CC2)cc1	> 100 µM (inactive)	27.9 µM (inactive)			47.5 µM (inactive)		> 100 µM (inactive)		> 100 µM (inactive)	> 100 µM (inactive)	30.1 µM (inactive)	59.7 µM (inactive)		> 100 µM (inactive)	> 100 µM (inactive)	20.7 µM (inactive)		27.8 µM (inactive)	92.7 µM (inactive)	
CC1=C(c2ccccc2)NC(=S)C(C)C(c2ccccc2)=N1 (stereo unspecified)	30.9 µM (inactive)	21.7 µM (inactive)	32.7 µM (inactive)	22 µM (inactive)	42.3 µM (inactive)	25.8 µM	32.4 µM (inactive)		33.7 µM (inactive)	10.6 µM (inactive)	> 100 µM (inactive)	27 µM (inactive)	56.6 µM (inactive)	24.9 µM (inactive)	18.7 µM (inactive)	> 100 µM (inactive)	65.6 µM (inactive)	23.7 µM (inactive)	19.6 µM (inactive)	21.2 µM (inactive)
COC1CCC(=O)N1CN(C(C)=O)c1ccc(C)cc1 (stereo unspecified)	> 100 µM (inactive)	> 100 µM (inactive)		> 100 µM (inactive)		> 100 µM	> 100 µM (inactive)	> 100 µM (inactive)	> 100 µM (inactive)	> 100 µM (inactive)	> 100 µM (inactive)	> 100 µM (inactive)	> 100 µM (inactive)	> 100 µM (inactive)	> 100 µM (inactive)	> 100 µM (inactive)	> 100 µM (inactive)		> 100 µM (inactive)	> 100 µM (inactive)
COC(=O)Cc1nc2ccccc2o1	95.1 µM (inactive)	> 100 µM (inactive)	> 100 µM (inactive)	> 100 µM (inactive)	> 100 µM (inactive)	33.3 µM	90.8 µM (inactive)		20.2 µM (inactive)	32.4 µM (inactive)	> 100 µM (inactive)		37.9 µM (inactive)	50.8 µM (inactive)		> 100 µM (inactive)	> 100 µM (inactive)		> 100 µM (inactive)	66.5 µM (inactive)
c1cc2c(c(NC3=NCCO3)c1)CCC2	> 100 µM (inactive)	> 100 µM (inactive)	> 100 µM (inactive)	86.5 µM (inactive)	> 100 µM (inactive)	> 100 µM	> 100 µM (inactive)	67 µM (inactive)	> 100 µM (inactive)	> 100 µM (inactive)	> 100 µM (inactive)	> 100 µM (inactive)	> 100 µM (inactive)	> 100 µM (inactive)	85.7 µM (inactive)	> 100 µM (inactive)			> 100 µM (inactive)	> 100 µM (inactive)
COC(=O)C(CO)NC(=O)C(CSC(c1ccccc1)(c1ccccc1)c1ccccc1)NC(=O)OCc1ccccc1 (stereo unspecified) (Cbz-Cys(Trt)-Ser-OMe; configuration not given here)	15.6 µM (inactive)	8.91 µM (inactive)	14.5 µM (inactive)	0.158 µM (active)	16 µM (inactive)	19.2 µM	11.4 µM (inactive)	12.3 µM (inactive)	12.1 µM (inactive)	15.3 µM (inactive)	24.6 µM (inactive)	14.8 µM (inactive)	16.6 µM (inactive)	15.1 µM (inactive)	15.2 µM (inactive)	17.3 µM (inactive)	17.6 µM (inactive)		14.5 µM (inactive)	16.1 µM (inactive)
COc1cc(/C=C/C(=O)O)ccc1O [FERULATE]	> 100 µM (inactive)		> 100 µM (inactive)	> 100 µM (inactive)	> 100 µM (inactive)	> 100 µM	> 100 µM (inactive)	> 100 µM (inactive)		> 100 µM (inactive)		> 100 µM (inactive)	> 100 µM (inactive)	> 100 µM (inactive)	> 100 µM (inactive)	> 100 µM (inactive)	> 100 µM (inactive)		> 100 µM (inactive)	> 100 µM (inactive)

From ChEMBL document CHEMBL1201862, “PubChem BioAssay data set” (2004)
